Test results from US8003654B2, “N-glycinsulfonamide derivatives and uses as orexin receptor antagonists” (Actelion Pharmaceuticals Ltd., priority 2006, dated 2011).

Tests used:
human orexin-1 receptor = biological target: T1, human orexin-1 receptor (Homo sapiens, UniProt O43613); test: Intracellular calcium measurements (FLIPR), antagonism of 10 nM orexin-A in CHO cells expressing the human orexin-1 receptor; assay type: cell-based; conditions: CHO cells expressing human orexin-1 receptor, agonist 10 nM orexin-A, read-out: OX1 IC50
T1 construct: expressed in transfected cells; host or cells: CHO cells (G418 selection)
T1 sequence (O43613 1-425): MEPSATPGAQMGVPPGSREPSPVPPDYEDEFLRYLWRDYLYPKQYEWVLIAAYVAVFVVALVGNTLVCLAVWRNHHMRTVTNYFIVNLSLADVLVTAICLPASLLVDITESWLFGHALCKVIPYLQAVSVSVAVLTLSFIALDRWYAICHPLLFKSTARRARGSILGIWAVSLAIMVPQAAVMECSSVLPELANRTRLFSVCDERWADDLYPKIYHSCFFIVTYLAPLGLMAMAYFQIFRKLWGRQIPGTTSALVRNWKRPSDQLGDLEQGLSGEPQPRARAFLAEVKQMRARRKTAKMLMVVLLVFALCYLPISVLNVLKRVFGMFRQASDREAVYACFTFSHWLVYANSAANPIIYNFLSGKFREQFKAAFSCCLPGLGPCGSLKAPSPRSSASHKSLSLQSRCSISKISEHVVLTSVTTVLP
Description: (§1) The orexin receptor antagonistic activity of the compounds of formula (I) is determined in accordance with the following experimental method.
(§2) • Intracellular Calcium Measurements:
(§3) Chinese hamster ovary (CHO) cells expressing the human orexin-1 receptor and the human orexin-2 receptor, respectively, are grown in culture medium (Ham F-12 with L-Glutamine) containing 300 μg/ml G418, 100 U/ml penicillin, 100 μg/ml streptomycin and 10% inactivated fetal calf serum (FCS). The cells are seeded at 80,000 cells/well into 96-well black clear bottom sterile plates (Costar) which have been precoated with 1% gelatine in Hanks' Balanced Salt Solution (HBSS). All reagents are from Gibco BRL. The seeded plates are incubated overnight at 37° C. in 5% CO2.
(§4) Human orexin-A as an agonist is prepared as 1 mM stock solution in methanol:water (1:1), diluted in HBSS containing 0.1% bovine serum albumin (BSA) and 2 mM HEPES for use in the assay at a final concentration of 10 nM.
(§5) Antagonists are prepared as 10 mM stock solution in DMSO, then diluted in 96-well plates, first in DMSO, then in HBSS containing 0.1% bovine serum albumin (BSA) and 2 mM HEPES.
(§6) On the day of the assay, 100 μl of loading medium (HBSS containing 1% FCS, 2 mM HEPES, 5 mM probenecid (Sigma) and 3 μM of the fluorescent calcium indicator fluo-3 AM (1 mM stock solution in DMSO with 10% pluronic acid) (Molecular Probes) is added to each well.
(§7) The 96-well plates are incubated for 60 min at 37° C. in 5% CO2. The loading solution is then aspirated and cells are washed 3 times with 200 μl HBSS containing 2.5 mM probenecid, 0.1% BSA, 2 mM HEPES. 100 μl of that same buffer is left in each well.
(§8) Within the Fluorescent Imaging Plate Reader (FLIPR, Molecular Devices), antagonists are added to the plate in a volume of 50 μl, incubated for 20 min and finally 100 μl of agonist is added. Fluorescence is measured for each well at 1 second intervals, and the height of each fluorescence peak is compared to the height of the fluorescence peak induced by 10 nM orexin-A with buffer in place of antagonist. For each antagonist, IC50 value (the concentration of compound needed to inhibit 50% of the agonistic response) is determined. Antagonistic activities of compounds are in the nanomolar range with respect to OX1 and OX2 receptors.

human orexin-2 receptor = biological target: T2, human orexin-2 receptor (Homo sapiens, UniProt O43614); test: Intracellular calcium measurements (FLIPR), antagonism of 10 nM orexin-A in CHO cells expressing the human orexin-2 receptor; assay type: cell-based; conditions: CHO cells expressing human orexin-2 receptor, agonist 10 nM orexin-A, read-out: OX2 IC50
T2 construct: expressed in transfected cells; host or cells: CHO cells (G418 selection)
T2 sequence (O43614 1-444): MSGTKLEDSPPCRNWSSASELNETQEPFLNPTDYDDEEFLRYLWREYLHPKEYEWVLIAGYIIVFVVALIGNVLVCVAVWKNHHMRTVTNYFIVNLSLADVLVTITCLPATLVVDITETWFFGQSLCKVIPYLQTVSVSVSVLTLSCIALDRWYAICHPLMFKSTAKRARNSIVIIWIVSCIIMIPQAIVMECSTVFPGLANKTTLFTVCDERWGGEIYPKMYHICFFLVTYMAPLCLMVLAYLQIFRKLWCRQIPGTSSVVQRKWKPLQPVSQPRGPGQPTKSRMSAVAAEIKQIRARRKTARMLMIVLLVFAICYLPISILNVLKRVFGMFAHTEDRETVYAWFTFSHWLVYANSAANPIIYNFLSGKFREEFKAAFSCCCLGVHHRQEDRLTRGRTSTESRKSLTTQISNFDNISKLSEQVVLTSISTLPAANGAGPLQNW
Description: as §1, §2, §3, §4, §5, §6, §7, §8

Q: For CCN(Cc1cncc(C)n1)C(=S)CN(c1cc(N(C)C)ccc1Cl)S(=O)(=O)c1ccc(OC)c(OC)c1 [Example 14, 2-[(2-Chloro-5-dimethylamino-phenyl)-(3,4-dimethoxy-benzenesulfonyl)-amino]-N-ethyl-N-(6-methyl-pyrazin-2-ylmethyl)-thioacetamide], which IC50 (human orexin-1 receptor) is on record?
A: Its IC50 is 15 nM.

Q: And the IC50 (human orexin-2 receptor)?
A: The IC50 was 12 nM.

Q: Which IC50 (human orexin-1 receptor) does the source give for CCN(Cc1cccc(C)n1)C(=O)CN(c1cc2c(C)nsc2cc1Cl)S(=O)(=O)c1ccc(OC)c(OC)c1 [Example 21, 2-[(6-Chloro-3-methyl-benzo[d]isothiazol-5-yl)-(3,4-dimethoxy-benzenesulfonyl)-amino]-N-ethyl-N-(6-methyl-pyridin-2-ylmethyl)-acetamide] here?
A: Its IC50 is 8 nM.

Q: What about the IC50 (human orexin-2 receptor) of the same compound?
A: The IC50 was 7 nM.

Q: With CCN(CC)C(=O)CN(c1ccc(Cl)cc1C#N)S(=O)(=O)c1ccc(OC)c(OC)c1 [Example 27, 2-[(4-Chloro-2-cyano-phenyl)-(3,4-dimethoxy-benzenesulfonyl)-amino]-N,N-diethyl-acetamide] as the compound, how does the IC50 (human orexin-1 receptor) read?
A: The IC50 was 180 nM.

Q: And the IC50 (human orexin-2 receptor)?
A: Its IC50 is 2 nM.

Q: Which IC50 (human orexin-1 receptor) does the source give for COc1ccc(S(=O)(=O)N(CC(=O)N(CCO)Cc2ccccn2)c2cc(N(C)C)ccc2Cl)cc1OC [Example 55, 2-[(2-Chloro-5-dimethylamino-phenyl)-(3,4-dimethoxy-benzenesulfonyl)-amino]-N-(2-hydroxy-ethyl)-N-pyridin-2-ylmethyl-acetamide] here?
A: The IC50 was 63 nM.

Q: What about the IC50 (human orexin-2 receptor) of the same compound?
A: Its IC50 is 7 nM.

Q: Which results are given for CCN(CC)C(=O)CN(c1cc(N(C)C)ccc1C#N)S(=O)(=O)c1ccc(OC)c(OC)c1 [Example 58, 2-[(2-Cyano-5-dimethylamino-phenyl)-(3,4-dimethoxy-benzenesulfonyl)-amino]-N,N-diethyl-acetamide]?
A: IC50 (human orexin-1 receptor): 166 nM; IC50 (human orexin-2 receptor): 10 nM
